Patent US20070015737A1, “Compounds for inhibiting diseases and preparing cells for transplantation” (Neurochem (International) Limited, priority 1999, published 2007)

Legend:
Format in all cases: biochemical
IAPP [1] = target: T1, IAPP (Homo sapiens, UniProt P10997); test: Rate of amyloid fibril formation by Thioflavine T spectroscopy (Example 1); details: Thioflavine T fluorescence
T1 sequence (P10997 34-70 limits assumed): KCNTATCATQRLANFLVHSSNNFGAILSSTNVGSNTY
Experimental: Determination of the Rate of Amyloid Fibril Formation by Thioflavine T Spectroscopy
Detection of ThT fluorescence can be used as a sensitive assay for amyloid fibril formation under different conditions. This assay has been used in experiments to determine the effects of compounds of the invention on amyloid fibril formation.
Human IAPP was dissolved in 40% trifluoroethanol and freeze-dried into conveniently-sized aliquots. IAPP was prepared immediately before the measurements by dissolving in 40% 1,1,1,3,3,3-hexafluoro-2-propanol (HFIP) in water to maintain the peptide in alpha helical conformation and soluble. A stock solution of ThT (2.5 mM) was prepared, 7.9 mg in 10 mL Tris-HCl pH 7.0 and filtered (0.22 μm). Solutions were kept in the dark until use. Fluorescence was examined at 440 nm excitation (slit 5 nm), and emission at 482 nm (slit 10 nm) with stirring. […] of ThT stock (final concentration 62.5 μM) was added to peptide sample and made up to 1 mL in the cuvette. The sample was stirred for 5 min. before taking a reading. Measurements were made at an initial time point (5 min. from sample preparation), at intervals over the next 4-6 h and after overnight incubation at room temperature.

Human IAPP (hIAPP) = target: T2, Human IAPP (hIAPP) (Homo sapiens, UniProt P10997); test: ELISA assay for quantitative determination of fibril formation (Example 4)
T2 construct: Human IAPP (hIAPP) was synthesised by solid state synthesis (Advanced Biotechnologies, UK); purchased Advanced Biotechnologies, UK; host or cells: chemical solid-phase synthesis
T2 sequence (P10997 34-70 limits assumed): T1 sequence (P10997 34-70 limits assumed)
Experimental: ELISA Assay for Quantitative Determination of Fibril Formation
Human IAPP (hIAPP) was synthesised by solid state synthesis (Advanced Biotechnologies, UK). Human IAPP forms fibrils immediately in aqueous media. Aliquots of IAPP in water (800 μg/ml) were stored frozen at −20° C. until use. These samples contain small numbers of fibrils visible with electron microscopy (em).
Two sets of samples containing IAPP (20 μM) with or without inhibitors (at a molar ratio of 10:1 with IAPP, (20 μM)) were prepared on day 1 in Tris buffer. One set was centrifuged, the supernatant removed and frozen immediately at −20° C. (Time zero time point). The other set was incubated overnight at room temp with shaking (time 24 h time point). On day 2 these samples were spun and supernatant removed to determine the proportion of non-fibrillar IAPP.
To assay IAPP in the supernatant both sets of samples were serially diluted in bicarbonate coating buffer, added to ELISA wells and incubated overnight. Plates were washed in phosphate buffer containing Tween (PBS/Tw)×3. Diluted antiserum raised against human IAPP was incubated on the plate for 90 minutes at 37° C. Following washing in PBS/Tw, alkaline phosphatase conjugated anti-rabbit antisera was incubated for 90 mins. Following washing in PBS/Tw, alkaline phosphate substrate was added and colour allowed to develop for 30 mins. Optical density was read at 405 nm.
Data from all samples was calculated to determine changes of IAPP concentration in the supernatant induced by the candidate substance immediately (i.e. at time zero) or after 24 h incubation. Data in FIG. 1 is expressed as the proportion of non-fibrillar IAPP in the supernatant of test samples compared to control at both time points.

IAPP [2] = target: T1, IAPP; test: Rate of fibril formation by Thioflavine T spectroscopy (Example 5); details: thioflavine T assay
Experimental: Determination of the Rate of Fibril Formation by Thioflavine T Spectroscopy
This can be used as a sensitive assay for fibril formation under different conditions. This assay has been used in experiments to determine the effects of some candidate compounds on fibril formation.
Human IAPP was dissolved in 40% Trifuoroethanol and freeze dried into convenient sized aliquots. IAPP (1 mg/ml) was prepared immediately before the measurement by dissolving in 40% HFIP in water to maintain the peptide in alpha confirmation and soluble. A stock solution of Thioflavine T (2.5 mM) was prepared 7.9 mg in 10 ml Tris pH 7.0 and filtered (0.22 micron). Solutions were kept in dark until use. Fluorescence was examined at 440 nm excitation (slit 5 nm), and Emission at 482 nm (Slit 10 nm) with stirring. Twenty five microlitres of Th-T stock (final conc 62.5 μM) was added to peptide sample (8 μg/ml) and made up to 1 ml in the cuvette. The sample was stirred for 5 min before taking a reading. Measurements were made at an initial time points (5 mins from sample preparation) and at intervals over the next 4-6 h after overnight incubation at room temp with and without candidate compound (vi) and a compound known to accelerate fibril formation, polyvinylsulphonate.

IAPP fibrils = target: T3, IAPP fibrils (Homo sapiens, UniProt P10997); test: Morphological characteristics of IAPP fibrils by transmission electron microscopy (Example 10); details: incubated 48 h, compared with IAPP alone
T3 sequence (P10997 34-70 limits assumed): T1 sequence (P10997 34-70 limits assumed)
Experimental: Morphological Characteristics of IAPP Fibrils Formed in Mixtures with Candidate Compounds.
IAPP prepared as in Example 3 was incubated with candidate compounds for 48 h Samples were then examined by transmission electron microscopy for the presence of fibrils. […] Long and short unbranching fibrils were present.

IAPP [3] = target: T1, IAPP; test: Circular dichroism analysis of β-sheet conformation (Example 2); parameters: add 10 μL of 10 mg/mL IAPP stock solution (final 100 μg peptide); details: changes in ellipticity at 218 nm (β-sheet conformation); peptide:compound 1:10
Experimental: Circular dichroism analysis was conducted to confirm the activity of certain therapeutic compounds in preventing or inhibiting IAPP-associated fibril formation in accordance with the present disclosure by determining the presence or absence of β-sheet conformation.
The assay, a co-incubation procedure, examines the ability of a compound or substance to inhibit the assembly of amyloid fibrils, e.g., to test for the presence of the amyloidotic b-sheet conformation in the presence of soluble IAPP. Samples are run in the presence and absence (i.e., water alone) of buffering agent, which is done to determine if competitive effects are seen with the ionic buffer (usually phosphate).
Add components used at a molar ratio of 1:10 [peptide:compound]; add 10 μL of 10 mg/mL IAPP stock solution (final 100 μg peptide) to the aqueous solution containing compound to a final volume of 400 μl. The pH of the final assay solution is measured to ensure there is no fluctuation and the spectrum is accumulated using the parameters as shown above.
Add desired amount of compound to achieve a 1:10 molar ratio in 10 mM phosphate buffer, pH 7. Add 10 μL of 10 mg/mL IAPP stock solution (final peptide 100 μg) to the phosphate buffered solution containing the compound and bring to a final volume of 400 μL. The pH of the final assay solution is measured to ensure there is no fluctuation and the spectrum is accumulated using the parameters as shown above.
In both assays, a control sample is run with each test group. This control contains peptide only in water or buffer at a similar final volume of 400 μl. Spectra for the control are collected initially (first run) and at the end of the test (final run) to ensure that the peptide has not undergone extensive aggregation during the course of the assay. Spectra for the controls are used to compare with the measurements obtained with the treated samples.
Make fresh 1 mg/mL stock solution of IAPP in 10 mM phosphate buffer, pH 7. Add desired amount of compound to achieve a 1:10 molar ratio in 10 mM phosphate buffer, pH 7. Incubate for 3 days at room temperature. Make up to final volume of 400 μL with 10 mM phosphate buffer, pH 7. The pH of the final assay solution is measured to ensure there is no fluctuation and the spectrum is accumulated using the parameters as shown above. A similar control is run for comparative purposes.
Plots of the spectra (control and treated) are individually assembled and the changes in ellipticity at 218 nm are examined. This minimum is directly correlated with the amount of peptide in β-sheet conformation present in the sample. Changes in either a positive or negative direction are noted and a relative value (“active” or “not active”) assigned to the compound as a measure of activity.

Compound: O=C(O)C(F)(F)C(F)(F)C(F)(F)C(=O)O [vi, Hexafluoroglutaric acid]
- IAPP-associated fibril assembly (IAPP [1]): inhibit or prevent IAPP-associated fibril assembly
- proportion of non-fibrillar IAPP in the supernatant (Human IAPP (hIAPP); IAPP 20 μM, inhibitor:IAPP molar ratio 10:1, compared to control): increase the proportion of non-fibrillar IAPP in the supernatant
- time point at which the increase of non-fibrillar IAPP was greater (Human IAPP (hIAPP); time zero versus time 24 h): greater at time zero
- time for which the reduced fluorescence level was stable (IAPP [2]): up to 15 hrs
- fluorescence units (IAPP [2]; compared with IAPP alone): reduced fluorescence below the level recorded for IAPP alone
- presence and morphology of fibrils (IAPP fibrils): contained fewer fibrils which were apparently short and long and not aggregated
- Activity (IAPP [3]): Active
